Literature values as cited in US20100029771A1, “TREATMENT OF ADDICTIVE DISORDERS” (priority 2008, published 2010).

Assays:
[1] = alcoholic subjects; each drug given individually
[2] = clinical trials
[3] = limited to the first months of treatment

Q: Which results are given for NCC(CC(=O)O)c1ccc(Cl)cc1 (stereo not shown) [baclofen, 4-amino-3-(4-chlorophenyl)butanoic acid]?
A: effect on craving [1]: reduce craving; effect on anxiety ([2]; alcoholic and non-alcoholic subjects): reduce anxiety; side effect [2]: somnolence being an overwhelming side effect

Q: With O=C1CC[C@@]2(O)[C@H]3Cc4ccc(O)c5c4[C@@]2(CCN3CC2CC2)[C@H]1O5 [naltrexone] as the molecule, how does the “duration of benefits on alcohol craving and intake” value [3] read?
A: ≤ 3 months
